# Measurements from patent US8053447B2, “11β-hydroxysteroid dehydrogenase type 1 active compounds” (High Point Pharmaceuticals, LLC, priority 2006, dated 2011).
# Target: T1, h-11βHSD1 (Homo sapiens, UniProt P28845)
# T1 construct: made in house
# Test: 11βHSD1 enzyme assay (scintillation proximity assay, 3H-cortisone to 3H-cortisol)
# Assay type: biochemical
# Conditions: extract of yeast transformed with h-11βHSD1; 120 nM 3H-cortisone, 4 mM β-NADPH, 60 min at 30° C., SPA
# Procedure: Pharmacological Methods 11βHSD1 Enzyme Assay Materials
# ^3H-cortisone and anti-rabbit Ig coated scintillation proximity assay (SPA) beads were purchased from Amersham Pharmacia Biotech, β-NADPH was from Sigma and rabbit anti-cortisol antibodies were from Fitzgerald. An extract of yeast transformed with h-11βHSD1 (Hult et al., FEBS Lett, 441, 25 (1998)) was used as the source of enzyme. The test compounds were dissolved in DMSO (10 mM). All dilutions were performed in a buffer containing 50 mM TRIS-HCl (Sigma Chemical Co), 4 mM EDTA (Sigma Chemical Co), 0.1% BSA (Sigma Chemical Co), 0.01% Tween-20 (Sigma Chemical Co) and 0.005% bacitracin (Novo Nordisk A/S), pH=7.4. Optiplate 96 wells plates were supplied by Packard. The amount of ^3H-cortisol bound to the SPA beads was measured on TopCount NXT, Packard.
# h-11βHSD1, 120 nM ^3H-cortisone, 4 mM β-NADPH, antibody (1:200), serial dilutions of test compound and SPA particles (2 mg/well) were added to the wells. The reaction was initiated by mixing the different components and was allowed to proceed under shaking for 60 min at 30° C. The reaction was stopped be the addition of 10 fold excess of a stopping buffer containing 500 μM carbenoxolone and 1 μM cortisone. Data was analysed using GraphPad Prism software.
# T1 sequence (P28845 whole entry): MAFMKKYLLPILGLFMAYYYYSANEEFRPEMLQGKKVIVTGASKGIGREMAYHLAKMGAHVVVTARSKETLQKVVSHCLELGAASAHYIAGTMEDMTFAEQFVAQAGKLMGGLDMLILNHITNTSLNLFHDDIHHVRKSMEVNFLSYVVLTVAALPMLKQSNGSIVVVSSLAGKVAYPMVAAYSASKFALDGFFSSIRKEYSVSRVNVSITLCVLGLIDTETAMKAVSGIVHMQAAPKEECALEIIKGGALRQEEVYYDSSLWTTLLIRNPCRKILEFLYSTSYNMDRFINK
row,Compound,IC50 [nM]
1,"O=C(NC1C2CC3CC(C2)CC1C3)c1ccc(O[C@H]2CC[C@@H](NC(=O)C3CC3)CC2)cc1 (stereo partly drawn) [Example 5c, Cis-N-Adamantan-2-yl-4-[4-(cyclopropanecarbonyl-amino)-cyclohexyloxy]-benzamide]",158
2,"O=C(NC1CCC(Oc2ccc(C(=O)N3C4CCC3CC(O)C4)cc2)CC1)C1CC1 (stereo not drawn) [Example C, Cyclopropanecarboxylic acid {4-[4-(3-hydroxy-8-aza-bicyclo[3.2.1]octane-8-carbonyl)-phenoxy]-cyclohexyl}-amide]",1070
3,"Cc1ccc(S(=O)(=O)NC(=O)N2CCC(Oc3ccc(C(=O)N4CC5CCC(CC5)C4)cc3)C2)cc1 (stereo not drawn) [Example 3g, N-{3-[4-(3-Aza-bicyclo-[3.2.2]nonane-3-carbonyl)-phenoxy]-pyrrolidine-1-carbonyl}-4-methyl-benzenesulfonamide]",2820
4,"O=C(NC1C2CC3CC(C2)CC1C3)c1ccc(OCC2CCC(O)CC2)cc1 (stereo not drawn) [Example 1f, 4-(4-Hydroxy-cyclohexyl-methoxy)-N-adamantan-2-yl-benzamide]",465
5,"CN(C(=O)c1ccc(OCC2CCN(S(=O)(=O)c3ccccn3)CC2)cc1)C1C2CC3CC1CC(O)(C3)C2 (stereo not drawn) [Example 4f, N-(5-Hydroxy-adamantan-2-yl)-N-methyl-4-[1-(pyridine-2-sulfonyl)-piperidin-4-yl-methoxy]-benzamide]",1360
6,"O=C(O)C1CCC(Oc2ccc(C(=O)N3CC4CCC(CC4)C3)cc2)C1 (stereo not drawn) [Example 7a, 3-[4-(3-Aza-bicyclo[3.2.2]-nonane-3-carbonyl)-phenoxy]-cyclopentane-carboxylic acid]",1400
7,"O=C(NC1C2CC3CC(C2)CC1C3)c1ccc(OC2CCC(On3cccn3)CC2)cc1 (stereo not drawn) [Example 2d, 4-[4-(Pyrazol-1-yloxy)-cyclohexyloxy]-N-adaman-tan-2-yl-benzamide]",180
8,"CC1(C)CC2CC(C)(CN2C(=O)c2ccc(O[C@H]3CC[C@H](C(=O)O)CC3)cc2)C1 (stereo partly drawn) [Example 6a, Trans-4-{4-(1,3,3-trimethyl-6-aza-bicyclo [3.2.1]oct-ane6-carbonyl)-phenoxy]-cyclo-hexanecarboxylic acid]",1200
9,"O=C(N[C@H]1CC[C@@H](Oc2ccc(C(=O)N3CCCC4CCCCC43)cc2)CC1)C1CC1 (stereo partly drawn) [Example 6c, Cis-Cyclopropanecarboxylic acid {4-[4-(octahydro-quino-line-1-carbonyl)-phenoxy]-cyclohexyl}-amide]",120
10,"Cn1cnc(S(=O)(=O)N2CCC(COc3ccc(C(=O)N4CCCC5CCCCC54)cc3)CC2)c1 (stereo not drawn) [Example 2f, {4-[1-(1-Methyl-1H-imidazole-4-sulfonyl)-piperidin-4-yl-methoxy]-phenyl}-(octahydro-quinolin-1-yl)-methanone]",134
11,"CC(C)CC(=O)N1CCC(Oc2ccc(C(=O)N3CC4CCC(CC4)C3)cc2)CC1 [Example 3b, 1-{4-[4-(3-Aza-bicyclo-[3.2.2]nonane-3-carbonyl)-phenoxy]-piperidin-1-yl}-3-methyl-butan-1-one]",1400
12,"CN(C(=O)c1ccc(OC2CCC(NC(=O)C3CC3)CC2)cc1)C1C2CC3CC1CC(O)(C3)C2 (stereo not drawn) [Example 8c, 4-[4-(Cyclopropanecarbonyl-amino)-cyclohexyloxy]-N-(5-hydroxy-adamantan-2-yl)-N-methyl-benzamide]",1650
13,"CC1(C)CC2CC(C)(CN2C(=O)c2ccc(OC3CCC(C(=O)O)C3)cc2)C1 (stereo not drawn) [Example 8a, 3-[4-(1,3,3-Trimethyl-6-aza-bicyclo[3.2.1]octane-6-carbonyl)-phenoxy]-cyclopentane carboxylic acid]",604
14,"O=C(NC1C2CC3CC(C2)CC1C3)c1ccc(OC2CCC(NC(=O)C3CC3)CC2)cc1 (mixture of isomers) [Example 2c, cis/trans-4-[4-(Cyclopropanecarbonyl-amino)-cyclohexyl-oxy]-N-adamantan-2-yl-benzamide]",118
15,"CC(C)NC(=O)N1CCC(COc2ccc(C(=O)N(C)C3C4CC5CC3CC(O)(C5)C4)cc2)CC1 (stereo not drawn) [Example 5f, 4-{4-[(5-Hydroxy-adamantan-2-yl)-methyl-carbamoyl]-phenoxy-methyl}-piperidine-1-carboxylic acid isopropyl-amide]",1800
16,"O=C(NC1C2CC3CC(C2)CC1C3)c1ccc(OC2CCC(COc3ccccn3)CC2)cc1 (stereo not drawn) [Example E, 4-[4-(Pyridin-2-yl-oxy-methyl)-cyclohexyloxy]-N-adamantan-2-yl-benzamide]",295
17,"CC(C)CC(=O)N1CCC(Oc2ccc(C(=O)N3CC4CCCC3C4)cc2)CC1 (stereo not drawn) [Example 5b, 1-{4-[4-(6-Aza-bicyclo[3.2.1]-octane-6-carbonyl)-phenoxy]-piperidin-1-yl}-3-methyl-butan-1-one]",1300
18,"CC(C)(C)OC(=O)N1C[C@@H]2CC1CN2c1ccc(C(=O)N2CC3CCC(CC3)C2)cc1 (stereo in doubt) [Example 1h, (1S,4S)-5-[4-(3-Aza-bicyclo[3.2.2]nonane-3-carbonyl)-phenyl]-2,5-diaza-bicyclo[2.2.1]heptane-2-carboxylic acid tert-butyl ester]",389
19,"O=C(c1ccc(O[C@H]2CC[C@@H](NS(=O)(=O)c3ccccn3)CC2)cc1)N1CCCC2CCCCC21 (stereo partly drawn) [Example 4c, Cis-Pyridine-2-sulfonic acid {4-[4-(octahydro-quinoline-1-carbonyl)-phenoxy]-cyclo-hexyl}-amide]",51
20,"CCOC(=O)C1CCC(Oc2ccc(C(=O)N3CC4(C)CC3CC(C)(C)C4)cc2)CC1 (stereo not drawn) [Example 1a, 4-[4-(1,3,3-Trimethyl-6-aza-bicyclo[3.2.1]octane-6-carbonyl)-phenoxy]-cyclo-hexanecarboxylic acid ethyl ester]",130
21,"O=C(NC1C2CC3CC(C2)CC1C3)c1ccc(N2[C@@H]3CC[C@H]2CC(Oc2ccccn2)C3)cc1 (stereo partly drawn) [Example 3h, 4-[(1S,5R)-3-(Pyridin-2-yloxy)-8-aza-bicyclo[3.2.1]oct-8-yl]-N-adamantan-2-yl-benzamide]",976

# Continued by falling IC50, values first:
row,IC50 [nM],Compound
1,2310,"O=C(C1CC1)N1CCC(Oc2ccc(C(=O)N3CC4CCCC3C4)cc2)CC1 (stereo not drawn) [Example 4b, (6-Aza-bicyclo[3.2.1]oct-6-yl)-[4-(1-cyclopropane-carbonyl-piperidin-4-yloxy)-phenyl]-methanone]"
2,2270,"CN(C(=O)c1ccc(OCC2CCN(S(=O)(=O)c3cn(C)cn3)CC2)cc1)C1C2CC3CC1CC(O)(C3)C2 (stereo not drawn) [Example 6f, N-(5-Hydroxy-adamantan-2-yl)-N-methyl-4-[1-(1-methyl-1H-imidazole-4-sulfonyl)-piperidin-4-ylmethoxy]-benzamide]"
3,2180,"CCS(=O)(=O)N1CCC(COc2ccc(C(=O)N(C)C3C4CC5CC3CC(O)(C5)C4)cc2)CC1 (stereo not drawn) [Example 7f, 4-(1-Ethanesulfonyl-piperidin-4-ylmethoxy)-N-(5-hydroxy-adamantan-2-yl)-N-methyl-benzamide]"
4,1120,"CN(C(=O)c1ccc(OC2CCC(NS(=O)(=O)c3ccccn3)CC2)cc1)C1C2CC3CC1CC(O)(C3)C2 (stereo not drawn) [Example 7c, N-(5-Hydroxy-adamantan-2-yl)-N-methyl-4-[4-(pyridine-2-sulfonylamino)-cyclohexyl-oxy]-benzamide]"
5,360,"CC1(C)CC2CC(C)(CN2C(=O)c2ccc(OC3CCC(C(=O)O)CC3)cc2)C1 (stereo not drawn) [Example A, 4-[4-(1,3,3-Trimethyl-6-aza-bicyclo[3.2.1]octane-6-carbonyl)-phenoxy]cyclohexanecarboxylic acid]"
6,300,"O=C(O)c1ccc(OCC2CCC(Oc3ccc(C(=O)NC4C5CC6CC(C5)CC4C6)cc3)CC2)cc1 (stereo not drawn) [Example 3e, 4-{4-[4-(Adamantan-2-yl-carbamoyl)-phenoxy]-cyclo-hexylmethoxy}-benzoic acid]"
7,271,"CCS(=O)(=O)N1CCC(COc2ccc(C(=O)N3CCCC4CCCCC43)cc2)CC1 (stereo not drawn) [Example 3f, [4-(1-Ethanesulfonyl-piperidin-4-yl-methoxy)-phenyl]-(octahydro-quinolin-1-yl)-methanone]"
8,190,"Cc1c[nH]c(SCC2CCC(Oc3ccc(C(=O)NC4C5CC6CC(C5)CC4C6)cc3)CC2)n1 (stereo not drawn) [Example 1e, N-Adamantan-2-yl-4-[4-(4-methyl-1H-imidazol-2-yl-sulfanylmethyl)-cyclo-hexyloxy]-benzamide]"
9,190,"O=C(NC1C2CC3CC(C2)CC1C3)c1ccc(OC2CCC(COn3cccn3)CC2)cc1 (stereo not drawn) [Example 2e, 4-[4-(Pyrazol-1-yl-oxy-methyl)-cyclohexyloxy]-N-adamantan-2-yl-benzamide]"
10,163,"O=C(O)c1ccc(S(=O)(=O)N2CCC(COc3ccc(C(=O)N4CCCC5CCCCC54)cc3)CC2)cc1 (stereo not drawn) [Example 9f, 4-{4-[4-(Octahydro-quinoline-1-carbonyl)-phenoxymethyl]-piperidine-1-sulfonyl}-benzoic acid]"
11,75,"O=C(NC1C2CC3CC(C2)CC1C3)c1ccc(OC2CCC(O)CC2)cc1 (stereo not drawn) [Example 1d, N-Adamantan-2-yl-4-(4-hydroxy-cyclohexyloxy)-benzamide]"
12,73,"NC(=O)C1CCC(Oc2ccc(C(=O)N3CCCC4CCCCC43)cc2)CC1 (stereo not drawn) [Example 13a, 4-[4-(Octahydro-quinoline-1-carbonyl)-phenoxy]-cyclo-hexanecarboxylic acid amide]"
